Results as given in PubChem BioAssay AID248 (DTP/NCI, 2004).
“And” between values parts separate entries of the source, which are not always exact repeats. Identical values can stand only once. Toxic doses and inconclusive results are not listed. Rule as the data show it: active = T/C of 150% or more; inactive = T/C below 125%.

Tested on: L1210 leukemia ip in BDF1 mice, survival T/C
Test: NCI In Vivo Anticancer Drug Screen. Data for tumor model L1210 Leukemia (intraperitoneal) in B6D2F1 (BDF1) mice
Details: endpoint: mean survival time, higher = longer survival
In short: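 Read-out is survival time, reported as the treated-group measurement over the vehicle-control measurement.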

[1] = dose: 100.0 mg/kg/injection, schedule: Q01DX001 (ip), vehicle: other
[2] = dose: 200.0 mg/kg/injection, schedule: Q01DX001 (ip), vehicle: other
[3] = dose: 100.0 mg/kg/injection, schedule: Q04DX003 (ip), vehicle: saline with Tween-80
[4] = dose: 200.0 mg/kg/injection, schedule: Q04DX003 (ip), vehicle: saline with Tween-80
[5] = dose: 400.0 mg/kg/injection, schedule: Q04DX003 (ip), vehicle: saline with Tween-80
[6] = dose: 100.0 mg/kg/injection, schedule: Q01DX009 (ip), vehicle: Klucel (hydroxypropylcellulose) (HPC)
[7] = dose: 200.0 mg/kg/injection, schedule: Q01DX009 (ip), vehicle: Klucel (hydroxypropylcellulose) (HPC)
[8] = dose: 400.0 mg/kg/injection, schedule: Q01DX009 (ip), vehicle: Klucel (hydroxypropylcellulose) (HPC)
[9] = dose: 100.0 mg/kg/injection, schedule: Q01DX009 (ip), vehicle: saline with Tween-80
[10] = dose: 100.0 mg/kg/injection, schedule: Q04DX003 (ip), vehicle: Klucel (hydroxypropylcellulose) (HPC)
[11] = dose: 200.0 mg/kg/injection, schedule: Q04DX003 (ip), vehicle: Klucel (hydroxypropylcellulose) (HPC)

Measured: T/C

CCN(CC)C/C=C/C(C)Nc1ccnc2cc(Cl)ccc12 (centres undefined)
inactive: dose: 5.0 mg/kg/injection, schedule: Q04DX002 (ip), vehicle: saline with Tween-80 98 % of control | dose: 10.0 mg/kg/injection, schedule: Q04DX002 (ip), vehicle: saline with Tween-80 98 % of control | dose: 20.0 mg/kg/injection, schedule: Q04DX002 (ip), vehicle: saline with Tween-80 94 % of control

CCOC(=O)CN=NNc1ccc(C(=O)OCC)cc1
inactive: dose: 25.0 mg/kg/injection, schedule: Q01DX009 (ip), vehicle: other 95 % of control | dose: 50.0 mg/kg/injection, schedule: Q01DX009 (ip), vehicle: other 96 % of control | dose: 50.0 mg/kg/injection, schedule: Q04DX003 (ip), vehicle: other 105 % of control | [1] 98 % of control | dose: 100.0 mg/kg/injection, schedule: Q04DX003 (ip), vehicle: other 104 % of control | [2] 95 % of control

COC(=O)C(CC(C)C)NC(=O)C(Cc1ccc(Oc2ccc([N+](=O)[O-])cc2[N+](=O)[O-])cc1)NC=O (centres undefined)
inactive: dose: 25.0 mg/kg/injection, schedule: Q01DX009 (ip), vehicle: water 104 % of control | dose: 50.0 mg/kg/injection, schedule: Q01DX009 (ip), vehicle: water 98 % of control | dose: 100.0 mg/kg/injection, schedule: Q01DX009 (ip), vehicle: water 102 % of control | dose: 200.0 mg/kg/injection, schedule: Q01DX009 (ip), vehicle: water 91 % of control | dose: 400.0 mg/kg/injection, schedule: Q01DX009 (ip), vehicle: water 97 % of control

CSCCC(NC(=O)NS(=O)(=O)c1ccc(C)cc1)C(=O)O (centres undefined)
inactive: [3] 96 % of control | [4] 97 % of control | [5] 100 % of control

O=C(OCCl)c1ccc(Cl)cc1Cl
inactive: [3] 87 % of control | [5] 88 % of control

O=C(Nc1ncc([N+](=O)[O-])s1)c1ccc([N+](=O)[O-])cc1Cl
inactive: dose: 5.0 mg/kg/injection, schedule: Q01DX009 (ip), vehicle: Klucel (hydroxypropylcellulose) (HPC) 94 % of control | dose: 5.0 mg/kg/injection, schedule: Q04DX003 (ip), vehicle: Klucel (hydroxypropylcellulose) (HPC) 100 % of control | dose: 10.0 mg/kg/injection, schedule: Q01DX009 (ip), vehicle: Klucel (hydroxypropylcellulose) (HPC) 92 % of control | dose: 10.0 mg/kg/injection, schedule: Q04DX003 (ip), vehicle: Klucel (hydroxypropylcellulose) (HPC) 95 % of control | dose: 20.0 mg/kg/injection, schedule: Q01DX009 (ip), vehicle: Klucel (hydroxypropylcellulose) (HPC) 99 % of control | dose: 20.0 mg/kg/injection, schedule: Q04DX003 (ip), vehicle: Klucel (hydroxypropylcellulose) (HPC) 94 % of control

COc1ccc(C)cc1NC(=O)Nc1cc(C(F)(F)F)ccc1Cl
inactive: [6] 88 % of control | [7] 95 % of control | [8] 90 % of control

CC/C=C/N1CCCCC1
inactive: dose: 25.0 mg/kg/injection, schedule: Q01DX009 (ip), vehicle: saline with Tween-80 97 % of control | dose: 50.0 mg/kg/injection, schedule: Q01DX009 (ip), vehicle: saline with Tween-80 94 % of control | [9] 113 % of control and 91 % of control

O=C(CCN1CCCCC1)c1ccccc1
inactive: dose: 5.0 mg/kg/injection, schedule: Q04DX003 (ip), vehicle: saline 96 % of control | dose: 10.0 mg/kg/injection, schedule: Q04DX003 (ip), vehicle: saline 103 % of control | dose: 20.0 mg/kg/injection, schedule: Q04DX003 (ip), vehicle: saline 94 % of control

NC(=O)N/N=C(\CBr)c1ccc([N+](=O)[O-])cc1
inactive: dose: 100.0 mg/kg/injection, schedule: Q04DX003 (ip), vehicle: saline 96 % of control | dose: 200.0 mg/kg/injection, schedule: Q04DX003 (ip), vehicle: saline 89 % of control | dose: 400.0 mg/kg/injection, schedule: Q04DX003 (ip), vehicle: saline 91 % of control

Cn1ncc(=O)n(C)c1=O
inactive: dose: 50.0 mg/kg/injection, schedule: Q01DX009 (ip), vehicle: saline 97 % of control | dose: 100.0 mg/kg/injection, schedule: Q01DX009 (ip), vehicle: saline 97 % of control | dose: 200.0 mg/kg/injection, schedule: Q01DX009 (ip), vehicle: saline 93 % of control

CN(C(=O)N(C)c1ccccc1)c1ccccc1
inactive: [6] 102 % of control | [10] 103 % of control | [7] 96 % of control | [11] 103 % of control | [8] 95 % of control | dose: 400.0 mg/kg/injection, schedule: Q04DX003 (ip), vehicle: Klucel (hydroxypropylcellulose) (HPC) 103 % of control

CS(=O)(=O)N(c1ccccc1)c1ccccc1[N+](=O)[O-]
inactive: [1] 117 % of control | [2] 96 % of control | dose: 400.0 mg/kg/injection, schedule: Q01DX001 (ip), vehicle: other 111 % of control

CCOc1ccc(/C=C/[N+](=O)[O-])cc1
inactive: dose: 12.5 mg/kg/injection, schedule: Q01DX009 (ip), vehicle: Klucel (hydroxypropylcellulose) (HPC) 96 % of control | dose: 12.5 mg/kg/injection, schedule: Q04DX003 (ip), vehicle: Klucel (hydroxypropylcellulose) (HPC) 95 % of control | dose: 25.0 mg/kg/injection, schedule: Q01DX009 (ip), vehicle: Klucel (hydroxypropylcellulose) (HPC) 97 % of control | dose: 25.0 mg/kg/injection, schedule: Q04DX003 (ip), vehicle: Klucel (hydroxypropylcellulose) (HPC) 114 % of control | dose: 50.0 mg/kg/injection, schedule: Q01DX009 (ip), vehicle: Klucel (hydroxypropylcellulose) (HPC) 105 % of control | dose: 50.0 mg/kg/injection, schedule: Q04DX003 (ip), vehicle: Klucel (hydroxypropylcellulose) (HPC) 101 % of control | [10] 94 % of control | [11] 95 % of control

Nc1ccc2nc3c4ccccc4c(O)n3nc2c1
inactive: dose: 100.0 mg/kg/injection, schedule: Q04DX002 (ip), vehicle: saline with Tween-80 106 % of control | dose: 200.0 mg/kg/injection, schedule: Q04DX002 (ip), vehicle: saline with Tween-80 102 % of control | dose: 400.0 mg/kg/injection, schedule: Q04DX002 (ip), vehicle: saline with Tween-80 102 % of control

CC(=O)Nc1ccc(S(=O)(=O)Nc2cc(C)ccc2C)cc1
inactive: [6] 94 % of control | [7] 103 % of control | [8] 103 % of control

CCOc1ccc(/C=N/NC(=O)c2ccccc2NC(=O)C2CC2)cc1OC
inactive: [9] 100 % of control | [3] 92 % of control | dose: 200.0 mg/kg/injection, schedule: Q01DX009 (ip), vehicle: saline with Tween-80 92 % of control | [4] 95 % of control | dose: 400.0 mg/kg/injection, schedule: Q01DX009 (ip), vehicle: saline with Tween-80 94 % of control | [5] 90 % of control
